Tests used:
Human plasma kallikrein = Human plasma kallikrein (Homo sapiens (Human), UniProt P03952); assay: Determination of the IC50 for plasma kallikrein; format: biochemical; conditions: 25° C., fluorogenic substrate H-DPro-Phe-Arg-AFC; read-out: IC50 (human PKaI)
Protocol: Determination of the IC50 for Plasma Kallikrein
(§1) Human plasma kallikrein (Protogen) was incubated at 25° C. with the fluorogenic substrate H-DPro-Phe-Arg-AFC and various concentrations of the test compound. Residual enzyme activity (initial rate of reaction) was determined by measuring the change in […] at 410 nm and the IC50 value for the test compound was determined.

Human KLK1 = Human KLK1 (Homo sapiens (Human), UniProt P06870); assay: Determination of the IC50 for KLK1; format: biochemical; conditions: 25° C., fluorogenic substrate H-DVal-Leu-Arg-AFC
Protocol: Determination of the IC50 for KLK1
as §1, with “KLK1 (Callbiochem)” for “plasma kallikrein (Protogen)”, “H-DVal-Leu-Arg-AFC” for “H-DPro-Phe-Arg-AFC”

Chain of Human plasma kallikrein (P03952 391-638): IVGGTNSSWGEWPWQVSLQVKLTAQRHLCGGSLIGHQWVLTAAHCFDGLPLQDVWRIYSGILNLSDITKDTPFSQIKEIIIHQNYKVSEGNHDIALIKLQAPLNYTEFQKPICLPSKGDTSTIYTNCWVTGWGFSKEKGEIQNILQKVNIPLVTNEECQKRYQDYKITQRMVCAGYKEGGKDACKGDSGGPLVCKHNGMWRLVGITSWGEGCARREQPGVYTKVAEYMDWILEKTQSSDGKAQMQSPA
Chain of Human plasma kallikrein (P03952 20-390 partner): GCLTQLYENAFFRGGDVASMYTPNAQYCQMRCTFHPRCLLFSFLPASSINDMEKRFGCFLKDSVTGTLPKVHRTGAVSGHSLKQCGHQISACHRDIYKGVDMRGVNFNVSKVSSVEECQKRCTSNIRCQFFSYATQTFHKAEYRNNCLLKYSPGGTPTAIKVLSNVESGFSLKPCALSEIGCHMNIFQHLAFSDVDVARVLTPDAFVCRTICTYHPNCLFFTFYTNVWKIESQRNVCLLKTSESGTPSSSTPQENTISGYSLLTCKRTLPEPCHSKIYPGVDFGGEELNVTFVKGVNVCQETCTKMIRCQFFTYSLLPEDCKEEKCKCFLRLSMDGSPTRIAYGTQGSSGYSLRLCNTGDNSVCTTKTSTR
Chain of Human KLK1 (P06870 25-262): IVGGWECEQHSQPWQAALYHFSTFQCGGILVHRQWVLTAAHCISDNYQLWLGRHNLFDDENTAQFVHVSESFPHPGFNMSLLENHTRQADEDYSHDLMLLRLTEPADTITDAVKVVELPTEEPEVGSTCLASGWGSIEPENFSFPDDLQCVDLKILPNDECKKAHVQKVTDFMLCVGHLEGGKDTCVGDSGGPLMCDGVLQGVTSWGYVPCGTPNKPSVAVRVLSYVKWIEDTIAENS

SMILES | IC50 (Human plasma kallikrein) [nM] | IC50 (Human KLK1) [nM]
Cc1cnn(Cc2ccc(Cn3cc(C(=O)NCc4cc(Cl)ccc4F)c(C(F)(F)F)n3)cc2)c1 [Example 20, N-[(5-chloro-2-fluorophenyl)methyl]-1-({4-[(4-methylpyrazol-1-yl)methyl]phenyl}methyl)-3-(trifluoromethyl)pyrazole-4-carboxamide] | 740 | > 10000
Cc1ccc(CNC(=O)c2cn(Cc3ccc(Cn4cc(C)cn4)cc3)nc2C(F)(F)F)cc1 [Example 8, N-[(4-methylphenyl)methyl]-1-({4-[(4-methylpyrazol-1-yl)methyl]phenyl}methyl)-3-(trifluoromethyl)pyrazole-4-carboxamide] | 539 | > 10000
Cc1cnn(Cc2ccc(Cn3cc(C(=O)NCc4ccc(Cl)cc4F)c(C(F)(F)F)n3)cc2)c1 [Example 17, N-[(4-chloro-2-fluorophenyl)methyl]-1-({4-[(4-methylpyrazol-1-yl)methyl]phenyl}methyl)-3-(trifluoromethyl)pyrazole-4-carboxamide] | 865 | > 10000
COCc1nn(Cc2ccc(Cn3ccccc3=O)cc2)cc1C(=O)NCc1ccc(C)nc1 [Example 32, 3-(methoxymethyl)-N-[(6-methylpyridin-3-yl)methyl]-1-({4-[(2-oxopyridin-1-yl)methyl]phenyl}methyl)pyrazole-4-carboxamide] | 7870 | > 10000
Cc1cnn(Cc2ccc(Cn3cc(C(=O)NCc4c(F)cccc4F)c(C(F)(F)F)n3)cc2)c1 [Example 13, N-[(2,6-difluorophenyl)methyl]-1-({4-[(4-methylpyrazol-1-yl)methyl]phenyl}methyl)-3-(trifluoromethyl)pyrazole-4-carboxamide] | 439 | > 10000
COCc1nn(Cc2ccc(N3CCCC3)nc2)cc1C(=O)NCc1csc2ccc(Cl)cc12 [Example 46, N-[(5-chloro-1-benzothiophen-3-yl)methyl]-3-(methoxymethyl)-1-{[6-(pyrrolidin-1-yl)pyridin-3-yl]methyl}pyrazole-4-carboxamide] | 2400 | > 10000
COCc1nn(Cc2ccc(Cn3ccccc3=O)cc2)cc1C(=O)NCc1cc(OC)ccc1C(N)=O [Example 86, N-[(2-carbamoyl-5-methoxyphenyl)methyl]-3-(methoxymethyl)-1-({4-[(2-oxopyridin-1-yl)methyl]phenyl}methyl)pyrazole-4-carboxamide] | 8.7 | > 40000
COCc1nn(Cc2ccc(Cn3ccccc3=O)cc2)cc1C(=O)NCc1csc2ccc(Cl)cc12 [Example 45, N-[(5-chloro-1-benzothiophen-3-yl)methyl]-3-(methoxymethyl)-1-({4-[(2-oxopyridin-1-yl)methyl]phenyl}methyl)pyrazole-4-carboxamide] | 144 | > 10000
COc1ccc(F)c(CNC(=O)c2cn(Cc3ccc(Cn4cc(C)cn4)cc3)nc2C(F)(F)F)c1 [Example 9, N-[(2-fluoro-5-methoxyphenyl)methyl]-1-({4-[(4-methylpyrazol-1-yl)methyl]phenyl}methyl)-3-(trifluoromethyl)pyrazole-4-carboxamide] | 239 | > 10000
COc1ccc(CNC(=O)c2cn(Cc3ccc(Cn4cc(C)cn4)cc3)nc2C(F)(F)F)c(OC)c1 [Example 10, N-[(2,4-dimethoxyphenyl)methyl]-1-({4-[(4-methylpyrazol-1-yl)methyl]phenyl}methyl)-3-(trifluoromethyl)pyrazole-4-carboxamide] | 1270 | > 10000
Cc1cnn(Cc2ccc(Cn3cc(C(=O)NCc4c(F)cc(Cl)cc4F)c(C(F)(F)F)n3)cc2)c1 [Example 16, N-[(4-chloro-2,6-difluorophenyl)methyl]-1-({4-[(4-methylpyrazol-1-yl)methyl]phenyl}methyl)-3-(trifluoromethyl)pyrazole-4-carboxamide] | 263 | > 10000
Cc1cnn(Cc2ccc(Cn3cc(C(=O)NCc4c(Cl)cccc4Cl)c(C(F)(F)F)n3)cc2)c1 [Example 22, N-[(2,6-dichlorophenyl)methyl]-1-({4-[(4-methylpyrazol-1-yl)methyl]phenyl}methyl)-3-(trifluoromethyl)pyrazole-4-carboxamide] | 1350 | > 10000
COCc1nn(Cc2ccc(Cn3cc(C)cn3)cc2)cc1C(=O)NCc1csc2ccc(Cl)cc12 [Example 47, N-[(5-chloro-1-benzothiophen-3-yl)methyl]-3-(methoxymethyl)-1-({4-[(4-methylpyrazol-1-yl)methyl]phenyl}methyl)pyrazole-4-carboxamide] | 753 | > 10000
Cc1cnn(Cc2ccc(Cn3cc(C(=O)NCc4cc(Cl)ccn4)c(C(F)(F)F)n3)cc2)c1 [Example 30, N-[(4-chloropyridin-2-yl)methyl]-1-({4-[(4-methylpyrazol-1-yl)methyl]phenyl}methyl)-3-(trifluoromethyl)pyrazole-4-carboxamide] | 915 | > 10000
Cc1cnn(Cc2ccc(Cn3cc(C(=O)NCc4c(F)ccc(Cl)c4F)c(C(F)(F)F)n3)cc2)c1 [Example 18, N-[(3-chloro-2,6-difluorophenyl)methyl]-1-({4-[(4-methylpyrazol-1-yl)methyl]phenyl}methyl)-3-(trifluoromethyl)pyrazole-4-carboxamide] | 373 | > 10000
Cc1cnn(Cc2ccc(Cn3cc(C(=O)NCc4cccc(OC(F)(F)F)c4)c(C(F)(F)F)n3)cc2)c1 [Example 7, 1-({4-[(4-methylpyrazol-1-yl)methyl]phenyl}methyl)-N-{[3-(trifluoromethoxy)phenyl]methyl}-3-(trifluoromethyl)pyrazole-4-carboxamide] | > 10000 | > 10000
COCc1nn(Cc2ccc(Cn3ccccc3=O)cc2)cc1C(=O)NCc1cnccc1C(F)(F)F [Example 31, 3-(methoxymethyl)-1-({4-[(2-oxopyridin-1-yl)methyl]phenyl}methyl)-N-{[4-(trifluoromethyl)pyridin-3-yl]methyl}pyrazole-4-carboxamide] | 392 | > 10000
COc1cccc(CNC(=O)c2cn(Cc3ccc(Cn4cc(C)cn4)cc3)nc2C(F)(F)F)c1 [Example 5, N-[(3-methoxyphenyl)methyl]-1-({4-[(4-methylpyrazol-1-yl)methyl]phenyl}methyl)-3-(trifluoromethyl)pyrazole-4-carboxamide] | 364 | > 10000
Cc1cnn(Cc2ccc(Cn3cc(C(=O)NCc4c(F)cccc4Cl)c(C(F)(F)F)n3)cc2)c1 [Example 14, N-[(2-chloro-6-fluorophenyl)methyl]-1-({4-[(4-methylpyrazol-1-yl)methyl]phenyl}methyl)-3-(trifluoromethyl)pyrazole-4-carboxamide] | 514 | > 10000
Cc1cc(C)c(CNC(=O)c2cn(Cc3ccc(Cn4cc(C)cn4)cc3)nc2C(F)(F)F)c(C)c1 [Example 26, 1-({4-[(4-methylpyrazol-1-yl)methyl]phenyl}methyl)-3-(trifluoromethyl)-N-[(2,4,6-trimethylphenyl)methyl]pyrazole-4-carboxamide] | 1340 | > 10000
COc1cc(F)c(CNC(=O)c2cn(Cc3ccc(Cn4cc(C)cn4)cc3)nc2C(F)(F)F)c(F)c1 [Example 11, N-[(2,6-difluoro-4-methoxyphenyl)methyl]-1-({4-[(4-methylpyrazol-1-yl)methyl]pheny}methyl)-3-(trifluoromethyl)pyrazole-4-carboxamide] | 456 | –
COc1ccc(CNC(=O)c2cn(Cc3ccc(Cn4cc(C)cn4)cc3)nc2C(F)(F)F)c(C(F)(F)F)c1 [Example 12, N-{[4-methoxy-2-(trifluoromethyl)phenyl]methyl}-1-({4-[(4-methylpyrazol-1-yl)methyl]phenyl}methyl)-3-(trifluoromethyl)pyrazole-4-carboxamide] | 746 | > 10000
Cc1ccc(CNC(=O)c2cn(Cc3ccc(Cn4cc(C)cn4)cc3)nc2C(F)(F)F)c(F)c1 [Example 28, N-[(2-fluoro-4-methylphenyl)methyl]-1-({4-[(4-methylpyrazol-1-yl)methyl]phenyl}methyl)-3-(trifluoromethyl)pyrazole-4-carboxamide] | 280 | > 10000
Cc1cnn(Cc2ccc(Cn3cc(C(=O)NCc4cc(Cl)ccc4C(F)(F)F)c(C(F)(F)F)n3)cc2)c1 [Example 23, N-{[5-chloro-2-(trifluoromethyl)phenyl]methyl}-1-({4-[(4-methylpyrazol-1-yl)methyl]phenyl}methyl)-3-(trifluoromethyl)pyrazole-4-carboxamide] | 1060 | > 10000
Cc1cnn(Cc2ccc(Cn3cc(C(=O)NCc4cccc(Cl)c4F)c(C(F)(F)F)n3)cc2)c1 [Example 19, N-[(3-chloro-2-fluorophenyl)methyl]-1-({4-[(4-methylpyrazol-1-yl)methyl]phenyl}methyl)-3-(trifluoromethyl)pyrazole-4-carboxamide] | 1130 | > 10000
Cc1cnn(Cc2ccc(Cn3cc(C(=O)NCc4ncccc4F)c(C(F)(F)F)n3)cc2)c1 [Example 29, N-[(3-fluoropyridin-2-yl)methyl]-1-({4-[(4-methylpyrazol-1-yl)methyl]phenyl}methyl)-3-(trifluoromethyl)pyrazole-4-carboxamide] | 2190 | > 10000
COc1cccc(CNC(=O)c2cn(Cc3ccc(Cn4cc(C)cn4)cc3)nc2C(F)(F)F)c1F [Example 4, N-[(2-fluoro-3-methoxyphenyl)methyl]-1-({4-[(4-methylpyrazol-1-yl)methyl]phenyl}methyl)-3-(trifluoromethyl)pyrazole-4-carboxamide] | 136 | > 10000

Source: US10364238B2, “N-((het) arylmethyl)-heteroaryl-carboxamides compounds as plasma kallikrein inhibitors” (KALVISTA PHARMACEUTICALS LIMITED, priority 2014, dated 2019)
